Measured values as given in US11884627B2, “Compounds and compositions for treating conditions associated with LPA receptor activity” (Lhotse Bio, Inc., priority 2022, dated 2024).
Read-outs that look alike come from different tables or passages of the source.

Molecular target: T1, human LPA1 (Homo sapiens, UniProt Q92633)
T1 construct: expressed in transfected cells; host or cells: CHO-K1
Assay: In vitro LPA1 calcium flux antagonist assay - Bioduro protocol
Assay type: cell-based
Conditions: CHO-K1 cells overexpressing human LPA1 and G15a, LPA challenge at EC80
Method: In Vitro LPA1 Calcium Flux Antagonist Assay—Bioduro Protocol
CHO-K1 cells overexpressing human LPA1 and G15a were seeded at a total volume of 20 μL (15000 cells/well) into Matrigel pre-coated 384-well plates (corning −3764) and incubated at 37° C. After overnight incubation, the cells were serum starved for 4 h. Assays were performed in dye loading buffer containing 1× Fluo-8 AM (AAT Bioquest, 21080) and 2.5 mM probenecid (Thermo Fisher, 36400) in HBSS/20 mM Hepes. After cell starvation, the medium was replaced with 20 μL of dye loading buffer and incubated at 37° C., for 30 min. Then 5 μL of 5× compound titrated in dye loading buffer was added to the cells and incubated for 30 min followed by LPA challenge at EC80. Calcium mobilization was measured on a FLIPR Tetra (MSD). For LPA EC80 determination, starved cells were incubated with 20 μL of dye loading buffer for 1 h, then 5 μL of 5×LPA titrated in dye loading buffer was added to the cells. Calcium signals induced by LPA was monitors on a FLIPR.
Percentage inhibition is calculated using the following formula: % Inhibition=100%×(1−(mean RFU of test sample−mean RFU of DMSO)/(mean RFU of LPA control−mean RFU of DMSO)).
Table B3 and Table B4 show the biological activity of compounds in in vitro LPA1 Calcium flux antagonist assay—Bioduro protocol.

[1] = calcium mobilization on FLIPR Tetra, read-out: IC50
[2] = Table B3, read-out: Activity (IC50 class)

T1 sequence (Q92633 whole entry): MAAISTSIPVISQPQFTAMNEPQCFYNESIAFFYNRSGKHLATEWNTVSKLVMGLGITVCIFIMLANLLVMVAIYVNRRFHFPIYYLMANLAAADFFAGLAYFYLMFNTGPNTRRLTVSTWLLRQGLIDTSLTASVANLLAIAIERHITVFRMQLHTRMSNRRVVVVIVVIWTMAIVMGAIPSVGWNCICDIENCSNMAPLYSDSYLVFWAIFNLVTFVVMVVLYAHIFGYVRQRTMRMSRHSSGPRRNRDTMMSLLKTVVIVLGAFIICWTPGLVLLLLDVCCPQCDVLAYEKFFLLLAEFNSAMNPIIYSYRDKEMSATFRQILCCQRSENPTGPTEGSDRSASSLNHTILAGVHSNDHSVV

Row | SMILES | IC50 [1] | IC50 [2]
1 | COc1cc(-c2ccc(OC3(C(=O)O)CC3)cc2COC2Cc3ccccc3C2)cc(OC)c1C [Compound 117, 1-({2-[(2,3-dihydro-1H-inden-2-yloxy)methyl]-3′,5′-dimethoxy-4′-methyl-[1,1′-biphenyl]-4-yl}oxy)cyclopropane-1-carboxylic acid] | 60.5 nM | < 100 nM
2 | COc1cc(-c2ccc(OCC3(C(=O)O)CCOCC3)cc2COC2CCCC2)c(F)c(OC)c1C [Compound 232] | 756 nM | 100 to 1000 nM
3 | COc1cc(OC)cc(-c2ccc(NC3(C(=O)O)CCOCC3)cc2COC2CCCC2)c1 [Compound 146] | 77.2 nM | < 100 nM
4 | CCOc1cccc(-c2ccc(NC3(C(=O)O)CCOCC3)cc2COC2CC2)c1F [Compound 306] | 165 nM | 100 to 1000 nM
5 | CCOc1c(C)ccc(-c2ccc(NC3(C(=O)O)CCOCC3)cc2COCC(C)C)c1C [Compound 394] | 97.6 nM | < 100 nM
6 | COC(=O)N1CCC(Nc2ccc(-c3cc(OC)cc(OC)c3)c(COC3CCCC3)c2)(C(=O)O)CC1 [Compound 157] | 112 nM | 100 to 1000 nM
7 | O=C(O)C1(Nc2ccc(-c3cccc(OC4CC4)c3F)c(COC3CC3)c2)CCOCC1 [Compound 289] | 51 nM | < 100 nM
8 | COC(=O)N1CCCC(Nc2cc(C)c(-c3cc(OC)cc(OC)c3)c(COC3CCCC3)c2)(C(=O)O)C1 (centres unmarked) [Compound 210] | > 10000 nM | > 1000 nM
9 | CCOc1c(C)ncc(-c2ccc(NC3(C(=O)O)CCOCC3)cc2COC2CC2)c1C [Compound 408] | 152 nM | 100 to 1000 nM
10 | COc1cc(-c2ccc(N(C)CCC(=O)O)cc2COC2Cc3ccccc3C2)cc(OC)c1C [Compound 107] | 2580 nM | > 1000 nM
11 | COc1c(C(C)=O)ccc(-c2ccc(NC3(C(=O)O)CCOCC3)cc2COC2CCCC2)c1C [Compound 189] | 52.5 nM | < 100 nM
12 | COc1cc(OC)cc(-c2ccc(NC3(C(=O)O)CCOCC3)cc2COC2COc3ccccc32)c1 (single isomer, unassigned) [Compound 158] | 46.3 nM | < 100 nM
13 | COc1cc(OC)cc(-c2c(C)cc(NC3(C(=O)O)Cc4ccccc4C3)cc2COC2CCCC2)c1 [Compound 188] | 2730 nM | > 1000 nM
14 | CCOc1cccc(-c2ccc(OC3(C(=O)O)CCC3)cc2COC2CC2)c1 [Compound 377] | > 10000 nM | > 1000 nM
15 | COc1cc(OC2CC2)cc(-c2ccc(NC3(C(=O)O)CCOCC3)cc2COC2CC2)c1 [Compound 332] | 139 nM | < 100 nM
16 | COc1cc(-c2ccc(NC3(C(=O)O)CCN(C(C)=O)CC3)cc2COC2Cc3ccccc3C2)cc(OC)c1C [Compound 133] | 82.9 nM | < 100 nM
17 | COC(=O)N1CCC(Nc2cc(C)c(-c3cc(C#N)cc(OC)c3)c(COC3CCCC3)c2)(C(=O)O)CC1 [Compound 161] | 976 nM | 100 to 1000 nM
18 | COc1cc(-c2ccc(NC3(C(=O)O)CCCOC3)cc2COC2CCCC2)c(C)c(OC)c1C (single isomer, unassigned) [Compound 201] | 73.2 nM | < 100 nM
19 | COC(=O)N1CC(Nc2ccc(-c3cc(OC)c(C)c(OC)c3C)c(COC3CCCC3)c2)(C(=O)O)C1 [Compound 195] | 760 nM | > 1000 nM
20 | COc1cc(-c2ccc(NC3(C(=O)O)CCC(O)CC3)cc2COC2CCCC2)cc(OC)c1C (centres unmarked) [Compound 206] | 476 nM | 100 to 1000 nM
21 | COc1cc(-c2ccc(OC3(C(=O)O)CCOCC3)cc2CO[C@H]2CCOC2)c(F)c(OC)c1C [Compound 281] | 110 nM | 100 to 1000 nM
22 | COc1ccc(C)c(-c2ccc(NC3(C(=O)O)CCOCC3)cc2COC2CCCC2)c1 [Compound 173] | 314 nM | 100 to 1000 nM
23 | COc1cc(-c2ccc(NC3(C(=O)O)CCCOC3)cc2COC2CCCC2)c(C)c(OC)c1C (single isomer, unassigned) [Compound 200] | 772 nM | 100 to 1000 nM
24 | COc1cc(-c2ccc(NC3(C(=O)O)CCC(C)(OC)CC3)cc2COC2CCCC2)c(F)c(OC)c1C (single isomer, unassigned) [Compound 238] | 268 nM | 100 to 1000 nM
25 | CCOC1CC(Nc2ccc(-c3cc(OC)c(C)c(OC)c3C)c(COC3CCCC3)c2)(C(=O)O)C1 (centres unmarked) [Compound 213] | 58.7 nM | < 100 nM
26 | O=C(O)C1(Nc2ccc(-c3cccc(OC4CCC4)c3F)c(COC3CC3)c2)CCOCC1 [Compound 291] | 173 nM | < 100 nM
27 | COc1cc(-c2ccc(NC3(C(=O)O)CCOCC3)cc2COC2CCCC2)c(Cl)c(OC)c1F [Compound 261] | 51.9 nM | < 100 nM
28 | COc1cc(-c2ccc(NC3(C(=O)O)CCC(C)(OC)CC3)cc2COC2CCCC2)c(F)c(OC)c1C (single isomer, unassigned) [Compound 237] | 63.6 nM | < 100 nM
29 | COc1cc(OC)nc(-c2c(C)cc(NC3(C(=O)O)CCOCC3)cc2COC2CCCC2)c1 [Compound 170] | 1500 nM | > 1000 nM

Compounds with a lower IC50 [1], results first:

Row | IC50 [1] | IC50 [2] | SMILES
30 | 17.5 nM | < 100 nM | CCOc1c(C)ccc(-c2ccc(NC3(C(=O)O)CCOCC3)cc2COC2CC2)c1F [Compound 381]
31 | 1.13 nM | < 100 nM | COc1cc(OC2CC2)c(F)c(-c2ccc(NC3(C(=O)O)CCOCC3)cc2COC2CCCC2)c1 [Compound 249, 4-((2-((cyclopentyloxy)methyl)-3′-cyclopropoxy-2′-fluoro-5′-methoxy-[1,1′-biphenyl]-4-yl)amino)tetrahydro-2H-pyran-4-carboxylic acid]
32 | 11.9 nM | < 100 nM | CCOc1cc(OC)cc(-c2ccc(NC3(C(=O)O)CCOCC3)cc2COC2CC2)c1F [Compound 288]
33 | 12.1 nM | < 100 nM | COc1cc(OC)c(C(F)F)c(-c2ccc(NC3(C(=O)O)CCOCC3)cc2COC2CCCC2)c1 [Compound 320]
34 | 9.31 nM | < 100 nM | COc1cc(-c2ccc(NC3(C(=O)O)CCOCC3)cc2COC2CCCC2)c(Cl)c(OC)c1C [Compound 166]
35 | 15.1 nM | < 100 nM | COc1cc(-c2ccc(OC3(C(=O)O)CCOCC3)cc2COC2CCCC2)c(Cl)c(OC)c1C [Compound 192, 4-((2′-chloro-2-((cyclopentyloxy)methyl)-3′,5′-dimethoxy-4′-methyl-[1,1′-biphenyl]-4-yl)oxy)tetrahydro-2H-pyran-4-carboxylic acid]
36 | 32.1 nM | < 100 nM | COc1cc(-c2ccc(NC3(C(=O)O)CC(OC)C3)cc2COC2Cc3ccccc3C2)cc(OC)c1C (single isomer, unassigned) [Compound 126]
37 | 5.93 nM | < 100 nM | CCOc1c(C)ccc(-c2ccc(NC3(C(=O)O)CCOCC3)cc2COC2CC2)c1C [Compound 313]
38 | 35.3 nM | < 100 nM | COc1cc(-c2ccc(NC3(C(=O)O)CCOCC3)cc2COC2CCCC2)c(F)c(OC)c1C(C)O (centres unmarked) [Compound 300]
39 | 9.47 nM | < 100 nM | COc1cc(-c2ccc(NC3(C(=O)O)CCOCC3)cc2COC2CC2)c(C)c(OC)c1C [Compound 318]
40 | 16.3 nM | < 100 nM | COc1cc(-c2ccc(NC3(C(=O)O)CCOCC3)cc2COC2Cc3ccccc3C2)cc(OC)c1C#N [Compound 127]
41 | 9.44 nM | < 100 nM | Cc1ccc(-c2ccc(NC3(C(=O)O)CCOCC3)cc2COC2CC2)c(F)c1OC1CC1 [Compound 392]
42 | 20 nM | < 100 nM | CCOc1cncc(-c2ccc(NC3(C(=O)O)CCC(F)(F)CC3)cc2COC2CC2)c1C(F)F [Compound 406]
43 | 24.5 nM | < 100 nM | COc1cc(-c2c(C)cc(NC3(C(=O)O)CCOCC3)cc2COC2CCCC2)cc(OC)c1C [Compound 141, 4-((2-((cyclopentyloxy)methyl)-3′,5′-dimethoxy-4′,6-dimethyl-[1,1′-biphenyl]-4-yl)amino) tetrahydro-2H-pyran-4-carboxylic acid]
44 | 2.63 nM | < 100 nM | COc1cc(OC)c(F)c(-c2ccc(NC3(C(=O)O)CCOCC3)cc2CCC2CCCC2)c1 [Compound 228]
45 | 14.2 nM | < 100 nM | COc1cc(-c2ccc(NC3(C(=O)O)CCC(F)(F)CC3)cc2COC2CCCC2)cc(OC)c1C [Compound 349]
46 | 4.76 nM | < 100 nM | COc1cc(-c2ccc(NC3(C(=O)O)CCOCC3)cc2COC2COc3ccccc32)c(F)c(OC)c1C (single isomer, unassigned) [Compound 223]
47 | 12 nM | < 100 nM | O=C(O)C1(Nc2ccc(-c3cccc(OC4CC4)c3F)c(COC3CCCC3)c2)CCOCC1 [Compound 265, 4-((2-((cyclopentyloxy)methyl)-3′-cyclopropoxy-2′-fluoro-[1,1′-biphenyl]-4-yl)amino)tetrahydro-2H-pyran-4-carboxylic acid]
48 | 22.2 nM | < 100 nM | COc1cc(OC)c(F)c(-c2ccc(NC3(C(=O)O)CCOCC3)cc2COC2CCCC2)c1 [Compound 226]
49 | 38.4 nM | < 100 nM | COc1cc(-c2ccc(NC3(C(=O)O)CCOCC3)cc2COC2CCCC2)c(F)c(OC)c1C(C)O (centres unmarked) [Compound 299]
